The results in this text go back to article PMC2637359 (Journal of cardiovascular pharmacology, 2008).

SMILES strings stand for the structures.

What is called IC50 is the midpoint of a concentration-inhibition curve.

For data set [1], the target named is T1, purified murine sEH recombinant enzyme (Mus musculus, UniProt P34914).
T1 sequence (P34914 1-554): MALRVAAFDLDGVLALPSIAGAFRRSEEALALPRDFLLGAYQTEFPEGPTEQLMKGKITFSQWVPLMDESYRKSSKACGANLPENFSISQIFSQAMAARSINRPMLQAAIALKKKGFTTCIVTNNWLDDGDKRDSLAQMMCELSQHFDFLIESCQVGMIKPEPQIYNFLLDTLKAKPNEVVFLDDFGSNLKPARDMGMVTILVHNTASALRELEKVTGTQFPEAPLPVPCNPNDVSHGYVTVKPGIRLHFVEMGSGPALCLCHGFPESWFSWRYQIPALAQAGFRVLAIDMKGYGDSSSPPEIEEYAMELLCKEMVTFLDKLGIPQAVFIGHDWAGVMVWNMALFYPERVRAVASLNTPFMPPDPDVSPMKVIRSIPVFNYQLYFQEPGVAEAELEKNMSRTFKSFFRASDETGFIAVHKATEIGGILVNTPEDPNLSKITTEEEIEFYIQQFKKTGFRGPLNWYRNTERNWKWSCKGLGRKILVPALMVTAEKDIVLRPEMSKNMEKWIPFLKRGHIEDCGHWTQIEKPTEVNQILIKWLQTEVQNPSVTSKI
Put plainly: sEH activity fluorescent assay. In kind it is biochemical.

A further data set in a line: in vivo. The conditions noted are these: ApoE -/-, mouse, plasma, oral, 90 µg/ml in drinking water.
Data set [2] in a line: Single oral dose pharmacokinetic study in mice. The data set is classed as in vivo, mouse. Particulars: AEPU by oral gavage 10 mg/kg, over 24 hours.
Data set [3] in a line: Plasma cholesterol levels in ApoE -/- mice. In kind it is in vivo, mouse. Particulars: AEPU-treated ApoE -/- mice.
Data set [4] can be described thus: AEPU metabolism in rat liver S9 fraction. In kind it is in vitro ADME.

On to `O=C(NCCCCCOCCOCCOCCO)NC12CC3CC(CC(C3)C1)C2` [Compound 975, 1-adamantan-1-yl-3-(5-{2-[2-(2-hydroxy-ethoxy)-ethoxy]-ethoxy}-pentyl)-urea], for which the half-inhibitory concentration (IC50) in data set [1] turned out to be 4.7 ± 0.7 nM.
Consider `CCOCCOCCOCCCCCNC(=O)NC12CC3CC(CC(O)(C3)C1)C2` [Compound 1010, 1-{5-[2-(2-ethoxyethoxy)-ethoxy]-pentyl}-3-(3-hydroxy-adamantan-1-yl)-urea], for which the IC50 in data set [1] was determined as 78 ± 19 nM. Besides, in data set [1] (murine sEH), the “fold less potent on the enzyme than AEPU” value is recorded as 28 fold. The compound also registered a concentration at 8 weeks in the data set “in vivo” of 565 nM. Moreover, the “times more abundant in the plasma than AEPU” value in data set [2] is “roughly 5,000 times”.
For the compound `CCOCCOCCOCCCCCNC(=O)NC12CC3CC(CC(C3)C1)C2` [AEPU, 1-adamantan-3-(5-(2-(2-ethylethoxy)ethoxy)pentyl)urea], the Plasma cholesterol level in data set [3] (control 2.5±0.6 mM) was 2.5 ± 0.9 mM; in data set [3] (control 96.2±23.1 mg/dl), 96.2 ± 34.6 mg/dL. Also, the “Metabolism in the absence of NADPH” value in data set [4] (rat S9 liver preparation without NADPH) is on record as “no metabolism”. Moreover, in data set [4] (rat liver S9 2.5 mg/mL, NADPH generating system, AEPU 10 µM, 60 min), the “AEPU remaining in the mixture” value was “less than 10%”.
